Measured values: US20100166781A1, “HAT ACETYLATION PROMOTERS AND USES OF COMPOSITIONS THEREOF IN PROMOTING IMMUNOGENICITY” (Tapimmune, Inc., priority 2008, published 2010)
Entries after “also recorded” stand apart in the source; their conditions may differ. Like-named read-outs stand apart in the source and are kept apart here.

Assays:
A9 tumor = A9 tumor growth in C57BL/6 syngeneic mice; type: in vivo, C57BL/6 mice; details: A9 cells s.c., 500 μg/kg daily i.p. for 20 days from day 7, versus DMSO control
Method: A total of 3×10^5 cells of TC-1 or A9 in PBS were injected subcutaneously into seven-week-old female C57BL/6 syngeneic mice (Charles River, St. Constant, QC). Mice were assigned to 3 groups of 4 animals. TSA was dissolved in DMSO to a concentration of 0.2 mg/ml. Daily treatment with 50 ul TSA (500 μg/kg) or DMSO (vehicle control) was administered via intraperitoneal injection for 20 days, starting on day 7 after injection with tumor cells. Mice were weighed weekly, and their behavior and food intake were monitored throughout the course of the experiment. Tumors were measured 3 times a week and tumor volume was calculated using the formula: tumor volume=length×width×height×π/6. The study period was determined by the size of the tumors in the A9 group treated with DMSO vehicle control.
TC-1 and A9 cells were cultured in vitro and were passaged less than 8 times before 3×10^5 of each group of the cells were injected subcutaneously into 7 week-old female C57BL/6 syngeneic mice. Daily treatment with TSA or DMSO vehicle control began on day 7 after cells injection, as the animals started to grow palpable A9 tumors. […] No tumor was detected beyond 1 month after injection with less than 3×10^5 TC-1 tumor cells (data not shown).

[1] = system: VSV-infected cancer cells; type: cell-based, murine; details: for enhancement of CTL killing / enhancement of levels of killing: treatment 24 hours prior to VSV infection; for enhancement of CTL killing: effector:target 22:1
TAP-1 = assay: RT-PCR and Western blot analysis of TAP-1 expression; type: cell-based, murine
Method: Fifty micrograms of proteins per sample were separated through 6% (p300, CBP and TAP-1) or 15% (β-actin and acetyl-histone H3) SDS-PAGE. Proteins were transferred to a nitrocellulose membrane (Bio-rad, Hercules, Calif.). Blots were blocked with 5% skim milk in PBS and incubated with appropriate Ab dilutions. […] Secondary Ab used was HRP-conjugated goat anti-rabbit secondary Ab (Jackson Immunoresearch Lab., West Grove, Pa.). For the loading controls, anti β-actin mouse monoclonal Ab (Sigma) was used, followed by HRP-conjugated goat anti-mouse secondary Ab (Pierce, Rockford, Ill.). Blots were developed using Lumi-light reagents (Pierce).
Western blot analysis of TAP-1 expression was performed using lysate of cells that were pre-treated with 20 to 200 ng/ml TSA for 24 to 48 hours, and representative data from cells treated with 100 ng/ml TSA for 24 hours (PA and LMD) or 48 hours (TC-1, D11 and A9) are shown in FIG. 4A.

TAP-2 = assay: RT-PCR analysis of APM components: TAP-2; details: HPV-positive carcinoma cell lines, particularly TAP-deficient cells
TAP-1 promoter [2] = assay: Chromatin immunoprecipitation with anti-acetyl-histone H3 antibody, real-time PCR of TAP-1 promoter; type: cell-based, murine
Method: (§1) As the low level of histone H3 acetylation in TAP-1 promoter seems to contribute to TAP-1 deficiency in carcinomas, a further investigation was conducted to determine whether treatment of TAP-deficient carcinoma cells with TSA would increase the TAP-1 expression in the cells. […] Relative RNA pol II or acetyl-histone H3 levels were determined as the ratio of copy numbers of the eluted TAP-1 promoter and copy numbers of the corresponding inputs. The smallest ratio was arbitrarily determined as 1. Columns, average of three to six experiments; bars, SEM. *P<0.05 compared with cells that expressed higher MHC class I in the same assay.

TAP-1 promoter [3] = assay: Luciferase assay in cells stably transfected with pTAP-1-luc construct; type: cell-based, murine
Excerpt: A plasmid containing an EGFP gene driven by the TAP-1 promoter (pTAP-1-EGFP) was constructed as described previously. A similar construct containing a luciferase gene driven by the TAP-1 promoter (pTAP-1-luc) was created by inserting the TAP-1 promoter between the Sac I and BgI II sites of pGL4.14[luc2/Hygro] vector (Promega, Madison, Wis.). Several truncated TAP-1 promoter constructs were also made by cloning its 5′-end truncations into pGL4.14[luc2/Hygro] vector. Primers were used for PCR amplifications of the full TAP-1 promoter and its truncations.
TC-1, D11, A9, PA and LMD cells were transfected with the TAP-1 promoter constructs or the promoterless pGL4.14[luc2/Hygro] vector using ExGen 500 in vitro Transfection Reagent (Fermentas). Transient transfectants were analyzed between 12-72 hours after transfection. To obtain stable transfectants, the transfected cells were selected for 3 weeks in the presence of the following concentrations of Hygromycin B (Sigma): 550 ng/ml for TC-1 cells, 250 ng/ml for D11, A9 and LMD cells, 200 ng/ml for PA cells.
Relative luciferase activity (RLA) in transient transfectants was assessed by dual luciferase assay (Promega) within 12-72 hours after transfection. RLA in stable transfectants (3 weeks-1 month post-transfection) was assessed by Bright-Glo luciferase assay (Promega), and determined by subtracting the results with corresponding values obtained from transfection with promoterless pGL4.14[luc2/Hygro] vector alone and by further normalizing the values with copy number of plasmids integrated into the genome of each stable transfectant.

surface H-2K^b = surface H-2K^b (Mus musculus, UniProt P01901); assay: Flow cytometric analysis of surface H-2K^b expression; type: cell-based, murine
Method: Cells untreated (shaded areas) or treated with 100 ng/ml TSA (thick lines), or 50 ng/ml IFN-γ (thin lines), were stained with PE-conjugated anti-H-2K^bmAb. Data are representatives of three experiments.

tapasin = assay: RT-PCR analysis of APM components: tapasin; details: HPV-positive carcinoma cell lines, particularly TAP-deficient cells
LMP-2 = assay: RT-PCR analysis of APM components: LMP-2; details: HPV-positive carcinoma cell lines, particularly TAP-deficient cells
TAP-1 promoter [4] = assay: Chromatin immunoprecipitation with anti-RNA pol II antibody, real-time PCR of TAP-1 promoter; type: cell-based, murine
Method: as §1

A9 tumour = assay: A9 tumor growth in immunodeficient Rag1 mice; type: in vivo; details: TSA treatment
Method: A9 tumor growth was suppressed in C57B1/6 mice treated daily for 20 days with 500 μg/kg of TSA (black bars) as compared to those treated with DMSO vehicle control (white bars). However, TSA treatment had no affect on A9 tumour growth in Ragl^“7” mice.

TAP-1 promoter [5] = assay: Chromatin immunoprecipitation with anti-CBP antibody, real-time PCR of 5'-end of TAP-1 promoter; details: LMD, D11 and A9 cells, IFN-γ treatment

Chain of surface H-2K^b (P01901 whole entry, looked up): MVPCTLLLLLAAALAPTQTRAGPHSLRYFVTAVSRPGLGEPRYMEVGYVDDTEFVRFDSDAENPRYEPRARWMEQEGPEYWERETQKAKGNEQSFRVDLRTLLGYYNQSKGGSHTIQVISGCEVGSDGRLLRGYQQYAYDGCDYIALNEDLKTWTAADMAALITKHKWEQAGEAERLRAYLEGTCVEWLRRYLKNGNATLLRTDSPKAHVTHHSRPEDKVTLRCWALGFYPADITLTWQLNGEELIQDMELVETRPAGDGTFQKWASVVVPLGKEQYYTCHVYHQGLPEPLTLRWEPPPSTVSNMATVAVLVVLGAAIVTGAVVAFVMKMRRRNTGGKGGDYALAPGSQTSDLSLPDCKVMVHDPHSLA

CC(/C=C/C(=O)NO)=C\[C@@H](C)C(=O)c1ccc(N(C)C)cc1 [TSA, trichostatin A]
tumor growth (A9 tumor): suppressed; also recorded: slower
enhancement of CTL killing ([1]; VSV-infected A9 cells): ~7 fold
enhancement of levels of killing ([1]; VSV-infected B16 cells): 20 fold
enhancement of levels of killing ([1]; VSV-infected CMT.64 cells): 5 fold
enhancement of CTL killing ([1]; VSV-infected D11 cells): ~6 fold
enhancement of CTL killing ([1]; VSV-infected TC-1 cells): approximately 1.4 fold
Optimal dose for optimal induction of TAP-1 expression (TAP-1; 24 hours in LMD, CMT.64 and B16, 48 hours in D11 and A9): 100 ng/mL
expression of TAP-1 (TAP-1; RT-PCR and Western blot, 100 ng/ml for 24 h (PA, LMD) or 48 h (TC-1, D11, A9)): up-regulated
TAP-1 expression upon increasing the dose (TAP-1; Western blot, TAP-deficient cells, 20 to 200 ng/ml for 24 to 48 hours): increasing levels of TAP-1 expression
expression of TAP-2 (TAP-2): up-regulation
levels of acetyl-histone H3 in TAP-1 promoter (TAP-1 promoter [2]; TSA treatment, all cell lines tested): did not significantly alter
TAP-1 promoter activity (TAP-1 promoter [3]; HPV-positive carcinoma model, TAP-deficient cells): to similar levels as in TAP-expressing cells
TAP-1 promoter activity (luc expression) (TAP-1 promoter [3]; TAP-deficient cells stably transfected with pTAP-1-luc): increased significantly
TAP-1 promoter activity (TAP-1 promoter [3]; prostate carcinoma model, LMD cells): statistically significant improvement
increase of surface expression H-2K^b (surface H-2K^b; MHC class I-deficient cells, 100 ng/ml TSA): approximately 10 fold
surface H-2K^b levels (surface H-2K^b; PA and TC-1 cells (originally high surface H-2K)): remained the same
expression of tapasin (tapasin): up-regulation
expression of LMP-2 (LMP-2): up-regulation
level of RNA pol II binding to TAP-1 promoter (TAP-1 promoter [4]; TSA treatment, TAP-deficient cells of HPV-positive and prostate carcinoma models): to similar levels as in TAP-expressing cells
recruitment of RNA pol II complex to the TAP-1 promoter (TAP-1 promoter [4]; TSA treatment, most cell lines, particularly TAP-deficient cells): enhanced
tumour growth (A9 tumour): no affect

B1: IFN-γ: potent inducer of TAP-1 and surface MHC class I expression in cancer cells, used as positive control (protein, UniProt P01579 24-161, looked up)
Interferon gamma: QDPYVKEAENLKKYFNAGHSDVADNGTLFLGILKNWKEESDRKIMQSQIVSFYFKLFKNFKDDQSIQKSVETIKEDMNVKFFNSNKKKRDDFEKLTNYSVTDLNVQRKAIHELIQVMAELSPAAKTGKRKRSQMLFRG
CBP binding to TAP-1 promoter (TAP-1 promoter [5]): increase
level of killing by CTL ([1]; all VSV-infected cell lines, IFN-γ treatment): maximal induction
expression of TAP-2 (TAP-2): inducible
level of acetyl-histone H3 in TAP-1 promoter (TAP-1 promoter [2]; IFN-γ treatment): increased
histone H3 acetylation in TAP-1 promoter (TAP-1 promoter [2]; TAP-deficient cells, IFN-γ compared with TSA): to much higher levels than TSA did
surface H-2K^b expression (surface H-2K^b; all cell lines, 50 ng/ml IFN-γ): increased
expression of LMP-2 (LMP-2): inducible
level of RNA pol II in TAP-1 promoter (TAP-1 promoter [4]; IFN-γ treatment): increased
